A short description of data set [1]: UPLC-MS retention on C18 as relative hydrophobicity. Format: physicochemical. As to conditions: chromatographic, C18 (BEH C18 1.7 µm), water/ACN with 0.1% TFA gradient, 40 °C; order of homologue groups Srf, Liche, Pumi; Figure 1B,D,F. The source says: The purified material was freeze-dried (lyophilisator Martin Christ alpha 3–4 LSC BASIC) before storage. All the CLPs used in this research were freshly prepared from powder before each experiment. The concentration of Liche or Pumi was referred to the concentration of Srf and determined by MassHunter Workstation software (version B.09.00) after data collection from an Agilent Technologies 1290 Infinity (Santa Clara, CA, USA), with a C18 reversed-phase column (waters acquity premier BEH C18 1.7 µm 2.1 mm × 50 mm) being used at a flow rate of 0.6 mL/min and a temperature of 40 °C. […] That was coupled with a mass detector (Agilent Technologies 6530 Accurate-Mass Q-TOF LC/MS, Santa Clara, CA, USA) in positive mode, with the parameters set up as follows: drying gas temperature of 300 °C, drying gas of 8 L/min, nebulizer of 35 psi, sheath gas temperature of 350 °C, flow rate of sheath gas of 11 L/min, capillary voltage of 3.5 kV, nozzle voltage (expt) of 1 kV, fragmentor voltage of 175 V, skimmer voltage of 65 V, and octopole radiofrequency of 750 V. Accurate mass spectra were recorded in the m/z range of 100–1700. […]

Data set [2] deals with root tissues. As to conditions: previous results; cited from earlier work. The source says:
Early immune responses associated with PTI include the rapid accumulation of extracellular ROS in the apoplast, generated mainly by the plasma membrane-located NADPH oxidase RBOHD or by cell wall peroxidases. Cytoplasmic hydrogen peroxide ([ROS]intra) production also emerges as an early defense response and could originate from various organelles, as reported for ETI, or in response to abiotic stresses or other small microbial compounds [9, 36, 37].

In data set [3] the test system is MYB72. Put plainly: Coumarin pathway reporter line pMYB72:GFP-GUS. Format: cell-based, Arabidopsis thaliana. The following applies: 10 µM Srf, 20 min post treatment, vs mock; n = 9 from three independent experiments; p < 0.05; Figure 6A. The procedure: (§1) Seedlings of the Arabidopsis thaliana reporter lines pMYB72:GFP-GUS and pBGLU42:GFP-GUS were germinated and cultivated for seven days under the aforementioned conditions. Uniform plantlets were then transferred to 96-well optical bottom black microplates (Greiner 96 µClear, Thermo Fisher Scientific, Hampton, VA, USA). Each well contained 150 µL of the hydroponic solution. Following transfer, the microplates were sealed and incubated in a growth chamber under controlled conditions (22 °C with a 12 h photoperiod). On the fifth day of this incubation, the plates were treated by adding 150 µL of either the CLP solution or a mock control to each well. Fluorescence measurements were subsequently acquired using a Spark microplate reader and configured with an excitation wavelength of 485 nm and an emission wavelength of 530 nm. Data were collected with nine measurement points acquired per well to ensure robustness.

For data set [4], the system named is Botrytis cinerea. Put plainly: ISR against B. cinerea in myb72-2 knockout mutant. Format: in vivo. As to conditions: 10 µM Srf or mock (0.1% EtOH) before B. cinerea infection; n = 30 from two independent experiments; Figure 6C. How it is done: Plants were grown for 4 weeks in hydroponic conditions in Araponics systems containing a nutrient solution (0.25% (v/v) FLORAMICRO®, 0.25% (v/v) FLORABLOOM®, 0.25% (v/v) FLORAGRO®; General Hydroponics®, in volume ratio 1:1:1, as recommended by the manufacturer), with a photoperiod of 12 h and a temperature of 22 °C. Plants were then transferred into 10 mL vials filled with fresh nutrient solution and treated at the root level with CLPs or ethanol (mock treatment) to obtain final concentrations of 10 µM and 0.1%, respectively. After incubation for 24 h, plants were inoculated with Botrytis cinerea (Helotiales: Sclerotiniaceae) as the conidia solution. Spores were collected from B. cinerea grown on PDA plates for 4 weeks using a solution composed of 1.75 g/L KH2PO4; 0.74 g/L MgSO4; 4 g/L glucose, and 0.02% (v/v) Tween 20. After spore collection, the concentration was adjusted to 5 × 10^5 spores per mL, and spores were incubated at 30 °C for eight hours. Inoculation was conducted by inoculating a drop of 3 µL of conidia solution onto seven leaves per plant and fifteen plants per treatment. The number of spreading lesions was evaluated 96 h post infection.

The test system of data set [5] is BGLU42. The experiment in a line: Coumarin pathway reporter line pBGLU42:GFP-GUS. Format: cell-based, Arabidopsis thaliana. The following applies: 10 µM Srf, 20 min post treatment, vs mock; n = 12 from three independent experiments; p < 0.05; Figure 6B. The procedure:
as §1

Data set [6] concerns Arabidopsis thaliana nia1nia2 double mutant roots. Put plainly: Srf-induced NO in nitrate reductase double mutant roots. The format is cell-based. As to conditions: fluorescence 40 min after Srf treatment, compared with Col-0; n = 12 from three independent experiments; Figure 3D. The procedure:
For the detection of intracellular NO, roots were processed as described above and 200 µL sterile water was replaced by 200 µL 5 μM DAF-DA in a buffered solution (10 mM Tris/HCl, pH = 7.4). Roots were incubated at room temperature for 1 h in the absence of light and then washed 3 times with Tris/HCl (10 mM, pH = 7.4). The fluorescence emitted by DAF-DA was detected by excitation at 495 nm and emission at 515 nm. Experiments where NO was measured after pretreatment with the calcium channel blocker or calcium chelator included an additional step where LaCl3 (10 mM; Merck Chemicals SA, Hoeilaart, Belgium) or EGTA (1 mM; Merck Chemicals SA, Hoeilaart, Belgium) was added three minutes before treatments. Data were processed as described above for ROS. For NO measurements in protoplasts, the suspension was incubated in the same conditions before being distributed (50 µL) in microplate wells and treated with the CLPs at a 10 µM final concentration or with 0.1% DMSO as a mock.

pumilacidin: in data set [1], the “UPLC-MS elution order (relative hydrophobicity)” value was “then Pumi”.
In the case of surfactin [Srf], in data set [2], the “Burst in extracellular ROS in root tissues” value is “not a burst in extracellular ROS” and the “[ROS]intra production in root tissues” value was “triggers [ROS]intra production”. Also, the “MYB72 expression in roots of reporter line (GFP fluorescence)” value in data set [3] is reported as “significant upregulation”. Besides, the “ISR elicitor potential in myb72-2 knockout mutant compared to wild-type Col-0” value in data set [4] is given as “fully conserved”. In addition, the “BGLU42 expression in roots of reporter line (GFP fluorescence)” value in data set [5] is on record as “significant upregulation”. Further, the “UPLC-MS elution order (relative hydrophobicity)” value in data set [1] is “eluted first”. Besides, the “NO production in nia1nia2 double mutant roots” value in data set [6] is reported as “fully conserved induction of NO production”.

The values above are taken from PMC12562324, “Surfactin Structural Variants Differentially Modulate Plant Immune Responses” (Biomolecules, 2025).
